Assay results taken from patent US20120146009A1, “NOVEL COMPOUND, FIELD-EFFECTIVE TRANSISTOR, SOLAR CELL, METHOD FOR PRODUCING SAID COMPOUND, FIELD-EFFECTIVE TRANSISTOR, AND SOLAR CELL, COMPOSITION FOR ORGANIC SEMICONDUCTOR LAYER, AND COMPOSITION FOR P-TYPE SEMICONDUCTOR LAYER” (Sharp Kabushiki Kaisha, priority 2009, published 2012).
Where two headings read alike, the source gives them in different places. Blank lines part the entries; values can stand above or below the compound they belong to.

Columns and labels:
Solubility in solvent = format: physicochemical
[1] = Stability against aerial oxidation (absorption intensity of solution in air-saturated methylene chloride, dark place); format: physicochemical; conditions: immediately after preparation to 1 week
Protocol: Next, stability of Compound 1 against aerial oxidation was evaluated. A solution of Compound 1 was prepared with the use of air-saturated methylene chloride as a solvent, and was left in a dark place. The absorption spectrum was measured during a time period from immediately after the preparation to 1 week after the preparation, so as to trace how an absorption intensity of the solution of Compound 1 was changed during the above time period (see Reference Document 1 described above).

[2] = HOMO level (ionization potential) by photoelectric spectroscopy in the atmosphere; format: physicochemical
Protocol: (§1) An absorption spectrum (absorption peak wavelength λmax, molar absorbance coefficient c) of Compound 1 thus synthesized was measured. Further, a HOMO level (ionization potential) of Compound 1 was measured by photoelectric spectroscopy in the atmosphere (SC-2).
(§2) Note that, for the result of pentacene shown in Table 2, the absorption spectrum described in Reference Document 1 (J. Am. Chem. Soc. 2007, 129, 2225) was used, and the HOMO level described in Reference Document 2 (Jpn. J. Appl. Phys. 2005, 44, 561) was used.

[3] = Properties of the isolated crystal in the atmosphere; format: physicochemical; conditions: yellow crystal
Protocol: Into an anhydrous DMF (15 ml) solution of Intermediate 1 (0.42 g, 1.5 mmol), sodium hydride (60%, 0.13 g, 3.1 mmol) was added little by little. The resultant solution was left at room temperature for 2 hours. After that, 1-bromohexane (0.5 g, 3 mmol) was added to the solution, and the solution was agitated for further 2 hours. A solvent was removed away under reduced pressure, and a residue was extracted with methylene chloride. The residue from which the solvent was distilled away was recrystallized from hexane so that 0.28 g of Compound 1 was obtained (yield: 41%).

[4] = Absorption spectrum in CH2Cl2; format: physicochemical
Protocol: as §1, §2

[5] = background statement; cited from earlier work
[6] = same condition, left for 24 hours, Reference Document 1; cited from earlier work
[7] = from Reference Document 1; cited from earlier work
[8] = from Reference Document 2; cited from earlier work

Resolvability with respect to a solvent (Solubility in solvent): excellent resolvability
Change in absorption intensity of solution [1]: no change in absorption intensity
Photoelectric spectroscopy HOMO [2]: −4.89 eV
Hydroscopic property [3]: no hydroscopic property
Absorption spectrum λ max ([4]; in CH2CL2): 422 nm
Absorption spectrum log ε ([4]; in CH2CL2, at λ max): (log ε = 4.58)
Compound: CCCCCCN1c2cc3ccccc3cc2N(CCCCCC)c2cc3ccccc3cc21 [Compound 1]
Stability in the atmosphere [3]: stable compound without any deterioration in the atmosphere

Compound: c1ccc2cc3c(cc2c1)Nc1cc2ccccc2cc1N3 [DHDAP, dihydrodiazapentacene]
Solubility [5]: low in solubility

Compound: c1ccc2cc3cc4cc5ccccc5cc4cc3cc2c1 [Pentacene, pentacene]
Change in absorption intensity of solution [6]: absorption intensity was substantially eliminated
Absorption spectrum λ max [7]: 575 nm
Photoelectric spectroscopy HOMO [8]: −5.0 eV
